Experimental data: publication PMC8533176, “1,5-Benzodiazepin-2(3H)-ones: In Vitro Evaluation as Antiparkinsonian Agents” (Antioxidants, 2021)

What was measured:
[1] = Kinetic solubility by UV spectrometry; format: physicochemical; settings: PBS 50 mM, aqueous buffer, kinetic from dmso stock
Description: A modified protocol was used from that described by Hoelke et al. for the determination of the kinetic solubility from DMSO compound solutions. A compound calibration curve (compound concentration vs UV absorption) was prepared for each compound with concentrations of 10, 20, 50, 100, and 200 µM. Each compound dilution was carried out by pipetting defined volumes of a 20 mM stock compound solution in DMSO into vials and adding PBS 50 mM to reach a final volume of 1 mL/well. The final amount of DMSO per well was 2%. For the lower compound concentrations, an additional volume of DMSO was added to each well to reach 2% DMSO. Then, 200 µL of each dilution was transferred to a new 96-well culture plate for the measurement of the UV-spectra. One well in each row was left without a compound as a blank, and its UV absorbance was used as an offset correction. The experiments were performed in duplicate.
In parallel, compound saturation solutions were reached and filtered from 20 mM compound stock in DMSO: 10 µL of a 20 mM stock solution was dispensed into 190 µL of PBS 10 mM. The solutions were mixed, shaken on a microplate shaker for two hours, and then 160 µL of each solution was filtered and transferred to a new well plate for UV absorption measurement.
Measurement of the UV-spectra was performed using a Varioskan microplate reader, and spectra were taken in the range of 270–600 nm. Spectral bandwidth was set to 5 nm, and the data pint interval was 10 nm. The experiments were carried out in triplicate.

SH-SY5Y cells [2] = experiment: Cytotoxicity, MTT assay, SH-SY5Y; format: cell-based; settings: Homo sapiens, MTT, cytotoxicity, read-out: SH-SY5Y IC50
Description: (§1) All compounds tested were dissolved and eventually further diluted in dimethylsulfoxide (DMSO). After overnight incubation, the cells were treated with different compound concentrations (5, 10, 20, 50, 100, 150, 200 µM) in a final volume of 200 µL with four replicates each. […] Cell proliferation or viability was measured using the 3-(4,5-dimethylthiazol-2-yl)-2,5-diphenyl tetrazolium bromide (MTT) assay. The MTT assay was optimized taking into account the number of cells plated per well, to work in the linear part of the cell density vs. MTT absorbance calibration curve, which allows achieving a maximum absorbance in the range of 0.8–1.0 in each well at the end of the experiment. In addition to that, the number of cells seeded for each experiment was optimized in agreement with the time scale of the experiment.
(§2) After cell treatment, 20 µL of MTT (5 mg/mL) was added to each well, and the plate was incubated at 37 °C in the dark for 2 h. Supernatants were removed, and the formazan crystals were solubilized in DMSO (200 µL/well), under 10 min shaking at room temperature. The reduction of MTT was quantified by absorbance at 570 nm in a Varioskan microplate reader (Thermo Fisher Scientific, Vantaa, Finland). Effects of the test compounds on cell viability were calculated using cells treated with a vehicle as a control. For IC50 and LD50 calculations, the data were subjected to linear regression analysis, and the regression lines were plotted for the best fit. The IC50 (inhibition of cell viability) concentrations were calculated using the respective dose–response curves.

HepG2 cells = experiment: Cytotoxicity, MTT assay, HepG2; format: cell-based; settings: Homo sapiens, HepG2; MTT, cytotoxicity; read-out: HepG2 IC50
Description: as §1, §2

SH-SY5Y cells [3] = experiment: LDH release under H2O2; format: cell-based, human; settings: H2O2 250 µM 24 h; compounds 24 h before; Figure 9
SH-SY5Y cells [4] = experiment: Neuroprotection in the 6-OHD neurotoxicity-induced model, MTT; format: cell-based, human; settings: 6-OHD 250 µM 48 h; compounds 24 h before
SH-SY5Y cells [5] = experiment: Neuroprotection in the MPP+ neurotoxicity-induced model, MTT; format: cell-based, human; settings: MPP+ 700 µM 48 h; compounds 24 h before
SH-SY5Y cells [6] = experiment: Mitochondrial superoxide levels (MitoSOX); format: cell-based, human; settings: H2O2 250 µM; compounds 24 h before
Description: Mitochondrial superoxide levels were measured with MitoSOX red (3,8-phenanthridinediamine, 5-(60-triphenylphosphoniumhexyl)-5,6-dihydro-6-phenyl) from Molecular Probes (Thermo Fisher Scientific, 29851Willow Creek Road, Eugene, OR, USA). After SH-SY5Y cell treatment in 96-well culture black clear bottom plates, the medium was removed and cells were washed with PBS and afterward, MitoSOX red (final concentration of 5 µM) in 200 µL of PBS was added and incubated for 20 min at 37 °C. After incubation, the cells were washed with warm PBS buffer, and fluorescence was measured at 510 nm excitation/640 nm emission wavelengths in a Varioskan microplate reader (Thermo Fisher Scientific, Vantaa, Finland).

[7] = tested on: Caspase-3 activity in SH-SY5Y cells; experiment: Caspase-3 activity; format: cell-based, human; settings: H2O2 500 µM 4 h; compound 24 h before
Description: Caspase-3 activity was measured using the Abcam fluorimetric kit (ab39383) according to the manufacturer’s instructions. Cells are washed with ice-cold PBS and lysed with lysis buffer. After compound and stressor treatments, SH-SY5Y cells were scraped off from p6 plates and collected in a 1.5 mL Eppendorf vial. The cell suspension was then centrifuged at 9000× g for 10 min at 4 °C. The supernatant was collected and stored at −80 °C for 24 h. Caspase 3 activity was measured as the ability of the cell extract to cleave the […] fluorochrome. The sample’s protein concentration was determined by the Bradford method. The reaction assay was performed by the addition of 50 μL of the cell lysate into the wells of a black 96-well culture plate followed by the addition of 50 μL of 2× reaction buffer containing DTT (10 mM) and caspase-3 substrate DEVD-AFC (final concentration 50 μM). Reagents were mixed by shaking the plate for 2 min at 300 rpm and then incubated at 37 °C for 2 h. Caspase-3 activity was measured as fluorescence intensity in a Varioskan microplate reader at λex = 400 nm and λem = 505 nm wavelengths. Relative fluorescence units (RFU)/mg of protein were calculated, and the fold increase in Caspase-3 activity was compared with that of the control.

SH-SY5Y cells [8] = experiment: Lipid peroxidation (MDA, TBARS); format: cell-based, human; settings: 250 µM H2O2 24 h; 10 and 20 µM 24 h before
Description: For MDA studies, 2 × 10^5 SH-SY5Y cells were seeded in 6-well culture plates. After 24 h, cells were treated with the test compound and incubated for another 24 h. After compound treatment, cells were exposed to H2O2 for 24 h. Then, the cells were washed twice with cold 50 mM PBS buffer, detached, and lysed with lysis buffer, and TBA was added to each sample tube and vortexed. The reaction mixture was incubated at 96 °C for 60 min. After incubation, samples were cooled and centrifuged 10 min at 10^4 rpm. Samples were dispensed in 96-well culture black clear bottom plates, and fluorescence was measured with a Varioskan microplate reader at λex = 540 nm and λem = 590 nm wavelengths. Protein concentration was measured by the Bradford protein assay. The levels of MDA were expressed as nmol/mg protein. Experiments were performed four times in triplicate.

diffSH-SY5Y cells = experiment: Neuroprotection in differentiated SH-SY5Y cells, MTT; format: cell-based, human; settings: H2O2 500 µM 24 h; 0, 2, 5, 10, 20, and 40 µM 24 h before
[9] = Chemical reactivity with H2O2; format: physicochemical; settings: H2O2 500 µM, 37 °C, 4 h; pH ≥ 7.4
Description: In our case, before running the protection experiments under oxidative stress conditions, we carried out experiments to assess the potential reactivity of compounds 9, 11, 13, and 18 at four different concentrations (5, 10, 20, and 40 µM) with H2O2 500 µM at 37 °C for 4 h in DMEM:F12 (without phenol red, FBS, and cells). Curcumin was used as a control compound.

[10] = previously reported; cited from earlier work
SH-SY5Y cells [11] = experiment: Neuroprotection against H2O2-induced oxidative stress, MTT; settings: H2O2 250 µM 24 h; compounds 5-50 µM 24 h before; Figure 8

COc1cc(/C=C/C(=O)CC(=O)/C=C/c2ccc(O)c(OC)c2)ccc1O [Curcumin, reference compound]
solubility [1]: < 50 µM | IC50 (SH-SY5Y cells [2]): 48.8 ± 5.1 µM | IC50 (HepG2 cells): 110 ± 9.8 µM | LDH leakage (SH-SY5Y cells [3]): reduced LDH leakage to some degree | Neuroprotection, cell viability (MTT), 6-OHD model (SH-SY5Y cells [4]): did not show any protection | Neuroprotection, cell viability (MTT), MPP+ model (SH-SY5Y cells [5]): did not yield any protection | Reduction in mitochondrial superoxide levels (SH-SY5Y cells [6]): only a clear reduction at 20 µM | Caspase-3 activity reduction [7]: did not show any reduction in caspase-3 activity | Effect on MDA levels (SH-SY5Y cells [8]): reduction of MDA levels although without statistical significance | Neuroprotection, diffSH-SY5Y cell viability (MTT) (diffSH-SY5Y cells): more irregular activity profile with some toxicity at 40 µM | concentration decrease in the presence of H2O2 [9]: 30% | water solubility [10]: < 0.6 µg/mL | Neuroprotection effect, cell viability (MTT) (SH-SY5Y cells [11]): only showed slight protection at concentrations 5 and 10 µM
